One data set relates to HEY cells. The data set can be described thus: HEY ovarian cancer cell growth, MTT assay. The data set is classed as cell-based, human. Conditions: 100 μg/ml, day 6. The protocol:
(§1) NIH3T3 (Yi, et al., Blood 85, 87 (1995)), WM9 (Forsberg, et al., Proc. Nat. Acad Sci. USA 90, 393 (1993)), DU145 (Mickey, et al., Cancer Res. 37, 4049 (1977)), LoVo (Drewinko, et al., Cancer Res. 36, 467 (1976)), HEY (Buick, et al., Cancer Res. 45, 3668 (1985)), U251 (Yoshida, et al., Cancer 50, 410 (1982)), A549 (Giard, et al., J. Natl. Cancer Inst. 51, 1417 (1973)) and SK-N-SH (Helson, et al., Cancer Res. 35, 2594 (1975)) cell lines have been described and were cultured in RPMI 1640 supplemented with 10% fetal calf serum (FCS). For measurement of sodium stibogluconate effects on cell growth in vitro, cells were cultured in the absence (−) or presence (+) of various amounts of sodium stibogluconate for 6 days with viable cells quantified by MTT assays (Mosmann, J. Immunol. Methods 65, 55 (1983)). Percentages of growth inhibition by sodium stibogluconate were calculated (.+−.x

The test system of a further data set is WM35 cells. The data set can be described thus: WM35 melanoma cell growth. In kind it is cell-based, human. The protocol:
(§2) For cell proliferation assays, cells were grown in 10% FCS culture medium containing various amounts of IFNs and/or sodium stibogluconate in 96 well plates and cultured at 37° C. for 3 or 6 days as indicated. The numbers of viable cells in proliferation assays were determined by MTT assays as described in Phatak et al., J. Immunol. 167, 3391 (2001).

The test system of data set [1] is NB4 cells. The data set can be described thus: NB4 proliferation, MTT assay. The data set is classed as cell-based, human. As to conditions: 12.5-400 μg/ml. The method, then: The NB4 cell line (Lanotte et al., Blood 77, 1080 (1991)) was a gift from Dr. Dan Lindner of the Cleveland Clinic Foundation. […] and U937 cell lines were purchased from American Type Culture Collection (Rockville, Md.). These human […] cell lines were maintained in RPMI 1640 medium supplemented with 10% fetal calf serum (FCS). For cell proliferation assays, cells were cultured at 37° C. in 10% FCS medium containing various amounts of sodium stibogluconate for 6 days. The cell numbers in the cultures were determined by an MTT assay as described previously in Mosmann, J. Immunol. Methods 65, 55 (1983).
In general terms: Tetrazolium dyes change colour on reduction, which living cells bring about.

The subject of a further data set is U266 cells. The data set can be described thus: U266 multiple myeloma cell growth, MTT assay. The data set is classed as cell-based, human. Conditions: day six cultures. The method, then:
as §2

The subject of a further data set is LoVo cells. Kind of data set: LoVo colon cancer cell growth, MTT assay. As to conditions: 100 μg/ml, day 6. In kind it is cell-based, human. The protocol:
as §1

The next data set deals with Renca tumors. Kind of data set: Renca tumors in Balb/c mice. In kind it is in vivo. As to conditions: end of treatment; listed as SSG. The method, then:
Balb/c and athymic nude Balb/c mice (10 weeks old, female, Taconic Farms, Germantown, N.Y.) were inoculated (s.c.) at the flanks with Renca cells (10^6 cells/site). […] The dose of SSG was similar to the effective daily dose of the drug for the treatment of murine leishmaniasis (Murray, H. W., J. D. Berman, and S. D. Wright. 1988. Immunochemotherapy for intracellular Leishmania donovani infection: gamma interferon plus pentavalent antimony. J Infect Dis 157:973). Tumor volume was measured during the study period and calculated using the formula for a prolate spheroid (V=4/3×a2b) (Lindner, D. J., E. C. Borden, and D. V. Kalvakolanu. 1997. Synergistic antitumor effects of a combination of interferons and retinoic acid on human tumor cells in vitro and in vivo. Clin Cancer Res 3:931). Student's t test was used for assessing the significance of tumor volume differences among differential treatment groups. Mouse viability (daily) and body weights (weekly) were also recorded during the study period. At the end of the study, Renca tumors and major internal organs (heart, kidney, liver, lung and spleen) were harvested for histology and immunohistochemistry analysis.

Another data set has as its system MDA231 cells. The data set can be described thus: MDA231 breast cancer cell growth, MTT assay. The data set is classed as cell-based, human. As to conditions: single agent, 50-100 μg/ml, day 6. The protocol: as §2
Data set [2] relates to NB4 cells. Kind of data set: NB4 cell cycle analysis. The data set is classed as cell-based, human. Conditions: 3 days; sodium stibogluconate 250 μg/ml, ATRA 1 μM. The protocol: The cell cycle was analyzed by flow cytometry after 3 days of culture of NB4 cells in the absence or presence of sodium stibogluconate (250 µg/ml) or ATRA (1 μM). Briefly, the cells were fixed in cold ethanol and incubated for 30 minutes at 4° C. in the dark with a solution of 50 […], 1 mg/ml RNase and 0.1% NP-40. Analysis was performed immediately after staining using the CELLFIT program (Becton Dickinson, Mountain View, Calif.).

For a further data set, the target named is T1, SHP-1 (Mus musculus, UniProt P29351).
T1 construct: made in house
T1 sequence (P29351 whole entry): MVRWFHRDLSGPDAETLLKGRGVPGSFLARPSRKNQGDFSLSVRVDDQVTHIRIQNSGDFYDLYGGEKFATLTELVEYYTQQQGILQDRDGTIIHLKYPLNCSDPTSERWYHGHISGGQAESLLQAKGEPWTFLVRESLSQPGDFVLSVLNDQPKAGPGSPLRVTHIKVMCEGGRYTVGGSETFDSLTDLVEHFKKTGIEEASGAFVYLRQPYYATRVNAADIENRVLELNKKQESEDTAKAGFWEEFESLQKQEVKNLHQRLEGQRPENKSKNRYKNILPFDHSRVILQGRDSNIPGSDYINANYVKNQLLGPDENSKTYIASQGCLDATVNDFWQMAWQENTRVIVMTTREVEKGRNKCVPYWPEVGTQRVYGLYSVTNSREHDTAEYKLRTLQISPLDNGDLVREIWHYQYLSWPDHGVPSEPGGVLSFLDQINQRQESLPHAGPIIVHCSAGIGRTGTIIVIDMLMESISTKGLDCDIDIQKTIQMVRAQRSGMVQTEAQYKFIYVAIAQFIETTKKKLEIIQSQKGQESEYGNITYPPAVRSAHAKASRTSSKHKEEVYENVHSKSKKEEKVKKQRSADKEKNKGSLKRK
The data set can be described thus: Reversibility of SHP-1 inhibition (washing of bead-bound GST/SHP-1). In kind it is biochemical. As to conditions: pre-incubated 4° C. 30 minutes, washed 3 times. An excerpt:
The beads were then either subjected to in vitro PTPase assays or washed 3 times in Tris buffer then subjected to in vitro PTPase assays.

“Also recorded” adds a separate entry of the source.

`O.O.O.O.O.O.O.O.O.O=C([O-])[C@@H]1[O][Sb]2([O-])([O][Sb]34([OH])[O][C@H]([C@H](O)CO)[C@H]([O]3)[C@H](C(=O)[O-])[O]4)[O][C@H]([C@H](O)CO)[C@@H]1[O]2.[Na+].[Na+].[Na+]` [sodium stibogluconate]: the “killing of HEY cells” value in the data set with HEY cells is recorded as “near-complete cell killing”. Further, in the data set on WM35 cells, the “effect on WM35 cells” value is on record as “minimally affected”. For the same compound, the “proliferation of NB4 cells” value with NB4 cells [1] is “markedly inhibited”. In addition, the “growth inhibition of U266 cells” value in the data set on U266 cells is listed as “substantial growth inhibition activity”. Further, the “killing of LoVo cells” value in the data set with LoVo cells was “near-complete cell killing”. Further, in the data set on Renca tumors, the “tolerance/survival of treated Balb/c mice” value is listed as “tolerated; also recorded: all mice in the treatment group survived”. Also, the “killing of MDA231 cells” value in the data set with MDA231 cells is on record as “killed all cells; also recorded: complete or near complete killing”. In addition, the “NB4 cell cycle effect” value in the data set with NB4 cells [2] is given as “significant increase of cells at S phase”. In addition, the “inhibition of GST/SHP-1 after washing” value against SHP-1 was “not affected by washing”.

The values above are taken from patent publication US20080226596A1, “Therapeutic compositions and methods useful in treating hepatitis” (priority 2006, published 2008).
